Laboratory results: US9695155B2, “Herbicidal substituted pyrimidinyloxy benzene compounds” (E. I. DU PONT DE NEMOURS AND COMPANY, priority 2013, dated 2017)

Tests used:
palmer pigweed = experiment: Test E preemergence; format: in vivo, Amaranthus palmeri; settings: for Pigweed, Palmer plant response rating: scale 0 to 100 (0 no effect, 100 complete control)
From the text: (§1) Seeds of plant species selected from corn (Zea mays), soybean (Glycine max), velvetleaf (Abutilon theophrasti), lambsquarters (Chenopodium album), wild poinsettia (Euphorbia heterophylla), palmer pigweed (Amaranthus palmeri), waterhemp (common waterhemp, Amaranthus rudis), surinam grass (Brachiaria decumbens), large (Lg) crabgrass (Digitaria sanguinalis), Brazilian crabgrass (Digitaria horizontalis), fall panicum (Panicum dichotomiflorum), giant foxtail (Setaria faberii), green foxtail (Setaria viridis), goosegrass (Eleusine indica), johnsongrass (Sorghum halepense), ragweed (common ragweed, Ambrosia elatior), barnyardgrass (Echinochloa crus-galli), sandbur (southern sandbur, Cenchrus echinatus), arrowleaf sida (Sida rhombifolia), Italian ryegrass (Lolium multiflorum), dayflower (Virginia (VA) dayflower, Commelina virginica), field bindweed (Convolvulus arvensis), morningglory (Ipomoea coccinea), nightshade (eastern black nightshade, Solanum ptycanthum), kochia (Kochia scoparia), yellow nutsedge (Cyperus esculentus), cocklebur (common cocklebur, Xanthium strumarium), smartweed (ladysthumb smartweed, and hairy beggarticks (Bidens pilosa), were planted into a silt loam soil and treated preemergence with test chemicals formulated in a non-phytotoxic solvent mixture which included a surfactant.
(§2) At the same time, plants from these crop and weed species and also horseweed (Canada horseweed, Conyza canadensis), waterhemp_RES1, (ALS & Triazine resistant common waterhemp, Amaranthus rudis), and waterhemp_RES2, (ALS & HPPD resistant common waterhemp, Amaranthus rudis) were planted in pots containing Redi-Earth® planting medium (Scotts Company, 14111 Scottslawn Road, Marysville, Ohio 43041) comprising spaghnum peat moss, vermiculite, wetting agent and starter nutrients were treated with postemergence applications of test chemicals formulated in the same manner. Plants ranged in height from 2 to 18 cm for postemergence treatments (1- to 4-leaf stage). Treated plants and controls were maintained in a greenhouse for 14 to 21 days, after which time all species were compared to controls and visually evaluated. Plant response ratings, summarized in Table E, are based on a scale of 0 to 100 where 0 is no effect and 100 is complete control. A dash (-) response means no test result.

Brazilian crabgrass = experiment: Test E preemergence; format: in vivo, Digitaria horizontalis; settings: for Crabgrass, Brazil plant response rating: scale 0 to 100 (0 no effect, 100 complete control)
From the text: as §1, §2

soybean = experiment: Test E preemergence; format: in vivo, Glycine max; settings: for Soybean plant response rating: scale 0 to 100 (0 no effect, 100 complete control)
From the text: as §1, §2

wild poinsettia = experiment: Test E preemergence; format: in vivo, Euphorbia heterophylla; settings: for Poinsettia, Wild plant response rating: scale 0 to 100 (0 no effect, 100 complete control)
From the text: as §1, §2

velvetleaf = experiment: Test E preemergence; format: in vivo, Abutilon theophrasti; settings: for Velvetleaf plant response rating: scale 0 to 100 (0 no effect, 100 complete control)
From the text: as §1, §2

waterhemp = experiment: Test E preemergence; format: in vivo, Amaranthus rudis; settings: for Waterhemp plant response rating: scale 0 to 100 (0 no effect, 100 complete control)
From the text: as §1, §2

morningglory = experiment: Test E preemergence; format: in vivo, Ipomoea coccinea; settings: for Morningglory plant response rating: scale 0 to 100 (0 no effect, 100 complete control)
Method in brief: (§3)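 Response was scored visually on a 0-100 scale (100 = complete control) versus controls after 14 to 21 days in the greenhouse. Test chemicals, formulated with surfactant in a non-phytotoxic solvent mixture, had been applied preemergence to seeds in silt loam soil or postemergence to 1- to 4-leaf plants in potting medium.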

Italian ryegrass = experiment: Test E preemergence; format: in vivo, Lolium multiflorum; settings: for Ryegrass, Italian plant response rating: scale 0 to 100 (0 no effect, 100 complete control)
Method in brief: as §3

ragweed = experiment: Test E preemergence; format: in vivo, Ambrosia elatior; settings: for Ragweed plant response rating: scale 0 to 100 (0 no effect, 100 complete control)
Method in brief: as §3

giant foxtail = experiment: Test E preemergence; format: in vivo, Setaria faberii; settings: for Foxtail, Giant plant response rating: scale 0 to 100 (0 no effect, 100 complete control)
From the text: as §1, §2

dayflower = experiment: Test E preemergence; format: in vivo, Commelina virginica; settings: for Dayflower, VA plant response rating: scale 0 to 100 (0 no effect, 100 complete control)
Method in brief: as §3

sandbur = experiment: Test E preemergence; format: in vivo, Cenchrus echinatus; settings: for Sandbur plant response rating: scale 0 to 100 (0 no effect, 100 complete control)
Method in brief: as §3

rice = experiment: Test C flooded paddy test; format: in vivo, Oryza sativa; settings: Flood, scale 0 to 100 (0 no effect, 100 complete control), 13 to 15 days
Method in brief: (§4)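 Flooded 3 cm over soil; compound into paddy water; depth kept constant. Greenhouse 13–15 d.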

sedge, umbrella = experiment: Test C flooded paddy test; format: in vivo, Cyperus difformis; settings: Flood, scale 0 to 100 (0 no effect, 100 complete control), 13 to 15 days
Method in brief: as §4

barnyardgrass = experiment: Test C flooded paddy test; format: in vivo, Echinochloa crus-galli; settings: Flood, scale 0 to 100 (0 no effect, 100 complete control), 13 to 15 days
Method in brief: as §4

[1] = 8 g ai/ha, scale 0 to 100, 0 is no effect, 100 is complete control
[2] = 125 g ai/ha, scale 0 to 100, 0 no effect, 100 complete control

NC(=S)c1cccc(Oc2ncc(Cl)cn2)c1-n1cc(Cl)cn1 [Compound 292]
Plant response rating, Pigweed, Palmer (palmer pigweed; [1]): 0
Pigweed, Palmer plant response rating (palmer pigweed; 31 g ai/ha): 35
Pigweed, Palmer plant response rating (palmer pigweed; 62 g ai/ha): 100
Plant response rating, Pigweed, Palmer (palmer pigweed; [2]): 100
Plant response rating, Crabgrass, Brazil (Brazilian crabgrass; [1]): 0
Crabgrass, Brazil plant response rating (Brazilian crabgrass; 16 g ai/ha): 10
Crabgrass, Brazil plant response rating (Brazilian crabgrass; 31 g ai/ha): 40
Crabgrass, Brazil plant response rating (Brazilian crabgrass; 62 g ai/ha): 100
Plant response rating, Crabgrass, Brazil (Brazilian crabgrass; [2]): 100
Plant response rating, Soybean (soybean; [1]): 0
Soybean plant response rating (soybean; 31 g ai/ha): 0
Soybean plant response rating (soybean; 62 g ai/ha): 40
Plant response rating, Soybean (soybean; [2]): 50
Plant response rating, Poinsettia, Wild (wild poinsettia; [1]): 0
Poinsettia, Wild plant response rating (wild poinsettia; 31 g ai/ha): 5
Poinsettia, Wild plant response rating (wild poinsettia; 62 g ai/ha): 35
Plant response rating, Poinsettia, Wild (wild poinsettia; [2]): 60
Plant response rating, Velvetleaf (velvetleaf; [1]): 0
Velvetleaf plant response rating (velvetleaf; 31 g ai/ha): 30
Velvetleaf plant response rating (velvetleaf; 62 g ai/ha): 35
Plant response rating, Velvetleaf (velvetleaf; [2]): 90
Plant response rating, Waterhemp (waterhemp; [1]): 0
Waterhemp plant response rating (waterhemp; 31 g ai/ha): 20
Waterhemp plant response rating (waterhemp; 62 g ai/ha): 80
Plant response rating, Waterhemp (waterhemp; [2]): 100
Plant response rating, Morningglory (morningglory; [1]): 0
Morningglory plant response rating (morningglory; 31 g ai/ha): 0
Morningglory plant response rating (morningglory; 62 g ai/ha): 15
Plant response rating, Morningglory (morningglory; [2]): 50
Plant response rating, Ryegrass, Italian (Italian ryegrass; [1]): 0
Ryegrass, Italian plant response rating (Italian ryegrass; 31 g ai/ha): 0
Ryegrass, Italian plant response rating (Italian ryegrass; 62 g ai/ha): 0
Plant response rating, Ryegrass, Italian (Italian ryegrass; [2]): 35
Plant response rating, Ragweed (ragweed; [1]): 0
Ragweed plant response rating (ragweed; 31 g ai/ha): 0
Ragweed plant response rating (ragweed; 62 g ai/ha): 0
Plant response rating, Ragweed (ragweed; [2]): 35
Plant response rating, Foxtail, Giant (giant foxtail; [1]): 0
Foxtail, Giant plant response rating (giant foxtail; 16 g ai/ha): 0
Foxtail, Giant plant response rating (giant foxtail; 31 g ai/ha): 5
Foxtail, Giant plant response rating (giant foxtail; 62 g ai/ha): 80
Plant response rating, Foxtail, Giant (giant foxtail; [2]): 95
Plant response rating, Dayflower, VA (dayflower; [1]): 20
Dayflower, VA plant response rating (dayflower; 16 g ai/ha): 20
Dayflower, VA plant response rating (dayflower; 31 g ai/ha): 20
Dayflower, VA plant response rating (dayflower; 62 g ai/ha): 35
Plant response rating, Dayflower, VA (dayflower; [2]): 85
Plant response rating, Sandbur (sandbur; [1]): 0
Sandbur plant response rating (sandbur; 31 g ai/ha): 20
Sandbur plant response rating (sandbur; 62 g ai/ha): 0
Plant response rating, Sandbur (sandbur; [2]): 35

Fc1cnc(Oc2cccc(C(F)F)c2-n2cc(C(F)(F)F)cn2)nc1 [Compound 164]
Pigweed, Palmer plant response rating (palmer pigweed; 31 g ai/ha): 0
Pigweed, Palmer plant response rating (palmer pigweed; 62 g ai/ha): 75
Plant response rating, Pigweed, Palmer (palmer pigweed; [2]): 80
Crabgrass, Brazil plant response rating (Brazilian crabgrass; 16 g ai/ha): 0
Crabgrass, Brazil plant response rating (Brazilian crabgrass; 31 g ai/ha): 20
Crabgrass, Brazil plant response rating (Brazilian crabgrass; 62 g ai/ha): 75
Plant response rating, Crabgrass, Brazil (Brazilian crabgrass; [2]): 100
Soybean plant response rating (soybean; 31 g ai/ha): 0
Soybean plant response rating (soybean; 62 g ai/ha): 15
Plant response rating, Soybean (soybean; [2]): 70
Poinsettia, Wild plant response rating (wild poinsettia; 31 g ai/ha): 0
Poinsettia, Wild plant response rating (wild poinsettia; 62 g ai/ha): 5
Plant response rating, Poinsettia, Wild (wild poinsettia; [2]): 30
Velvetleaf plant response rating (velvetleaf; 31 g ai/ha): 50
Velvetleaf plant response rating (velvetleaf; 62 g ai/ha): 100
Plant response rating, Velvetleaf (velvetleaf; [2]): 100
Waterhemp plant response rating (waterhemp; 31 g ai/ha): 65
Waterhemp plant response rating (waterhemp; 62 g ai/ha): 90
Plant response rating, Waterhemp (waterhemp; [2]): 90
Morningglory plant response rating (morningglory; 31 g ai/ha): 65
Morningglory plant response rating (morningglory; 62 g ai/ha): 35
Plant response rating, Morningglory (morningglory; [2]): 98
Plant response rating, Rice (rice; 31 g ai/ha): 0
Plant response rating, Rice (rice; 62 g ai/ha): 0
Plant response rating, Rice (rice; 125 g ai/ha): 0
Plant response rating, Rice (rice; 250 g ai/ha): 0
Ryegrass, Italian plant response rating (Italian ryegrass; 31 g ai/ha): 0
Ryegrass, Italian plant response rating (Italian ryegrass; 62 g ai/ha): 30
Plant response rating, Ryegrass, Italian (Italian ryegrass; [2]): 60
Ragweed plant response rating (ragweed; 31 g ai/ha): 0
Ragweed plant response rating (ragweed; 62 g ai/ha): 25
Plant response rating, Ragweed (ragweed; [2]): 60
Foxtail, Giant plant response rating (giant foxtail; 16 g ai/ha): 0
Foxtail, Giant plant response rating (giant foxtail; 31 g ai/ha): 20
Foxtail, Giant plant response rating (giant foxtail; 62 g ai/ha): 60
Plant response rating, Foxtail, Giant (giant foxtail; [2]): 95
Plant response rating, Sedge, Umbrella (sedge, umbrella; 31 g ai/ha): 0
Plant response rating, Sedge, Umbrella (sedge, umbrella; 62 g ai/ha): 20
Plant response rating, Sedge, Umbrella (sedge, umbrella; 125 g ai/ha): 75
Plant response rating, Sedge, Umbrella (sedge, umbrella; 250 g ai/ha): 95
Dayflower, VA plant response rating (dayflower; 16 g ai/ha): 0
Dayflower, VA plant response rating (dayflower; 31 g ai/ha): 20
Dayflower, VA plant response rating (dayflower; 62 g ai/ha): 65
Plant response rating, Dayflower, VA (dayflower; [2]): 90
Plant response rating, Barnyardgrass (barnyardgrass; 31 g ai/ha): 0
Plant response rating, Barnyardgrass (barnyardgrass; 62 g ai/ha): 0
Plant response rating, Barnyardgrass (barnyardgrass; 125 g ai/ha): 0
Plant response rating, Barnyardgrass (barnyardgrass; 250 g ai/ha): 0
Sandbur plant response rating (sandbur; 31 g ai/ha): 0
Sandbur plant response rating (sandbur; 62 g ai/ha): 0
Plant response rating, Sandbur (sandbur; [2]): 10
